Assays:
[1] = in water, after three days; pages 44 to 45 of WO 2007019255; cited from earlier work
[2] = compressibility; type: physicochemical

N#C[C@@H]1CCCN1C(=O)CNC12CC3CC(CC(O)(C3)C1)C2 [vildagliptin base, 1-[2-(3-hydroxyadamant-1-yl-amino)acetyl]pyrrolidin-(2S)-carbonitrile]
active ingredient detectable [1]: 7.5%

Vildagliptin Calcium(II)-Chloride Trihydrate Complex (1:1:3)
compressibility compared with vildagliptin base [2]: compressed significantly more preferably than the vildagliptin base
